Data as given in PMC5218480 (PLoS ONE, 2017).

Tested on: MV-4-11 cells
Assay: Gene expression microarray analysis (Affymetrix PrimeView) and GSEA
Type: cell-based, human
Set-up: RFU PODN (11730768_x_at) / Fold change /veh PODN (11730768_x_at) / RFU LINC00158 (11744669_a_at) / Fold change /veh LINC00158 (11744669_a_at) / RFU DUSP10 (11751237_a_at) / Fold change /veh DUSP10 (11751237_a_at) / RFU ID3 (11757404_x_at) / Fold change /veh ID3 (11757404_x_at) / RFU PLEKHG5 (11737974_s_at) / Fold change /veh PLEKHG5 (11737974_s_at) / RFU LRRC4B (11730491_at) / Fold change /veh LRRC4B (11730491_at) / RFU GIMAP4 (11747438_a_at) / Fold change /veh GIMAP4 (11747438_a_at) / RFU KRT8 (11758183_x_at) / Fold change /veh KRT8 (11758183_x_at) / RFU CNN1 (11734310_a_at) / Fold change /veh CNN1 (11734310_a_at) / RFU VPS37D (11726825_at) / Fold change /veh VPS37D (11726825_at) / RFU C10orf10 (11716522_x_at) / Fold change /veh C10orf10 (11716522_x_at) / RFU KIR2DL2 /// KIR2DL4 /// KIR2DL5A /// KIR2DL5B /// KIR2DS1 /// KIR2DS2 /// KIR2DS3 /// KIR2DS4 /// KIR3DL3 /// KIR3DL3 /// KIR3DS1 (11738374_at) / Fold change /veh KIR2DL2 /// KIR2DL4 /// KIR2DL5A /// KIR2DL5B /// KIR2DS1 /// KIR2DS2 /// KIR2DS3 /// KIR2DS4 /// KIR3DL3 /// KIR3DL3 /// KIR3DS1 (11738374_at) / RFU C1QL1 (11718748_at) / Fold change /veh C1QL1 (11718748_at) / RFU TMPRSS4 (11747572_a_at) / Fold change /veh TMPRSS4 (11747572_a_at) / RFU HAMP (11756126_x_at) / Fold change /veh HAMP (11756126_x_at) / RFU RNFT2 (11725882_a_at) / Fold change /veh RNFT2 (11725882_a_at) / RFU NR4A2 (11747474_a_at) / Fold change /veh NR4A2 (11747474_a_at) / RFU ABCC12 (11746883_a_at) / Fold change /veh ABCC12 (11746883_a_at) / RFU TMEM136 (11760407_x_at) / Fold change /veh TMEM136 (11760407_x_at) / RFU CLDN22 /// WWC2 (11732394_at) / Fold change /veh CLDN22 /// WWC2 (11732394_at) / RFU HLA-DPB1 (11760878_x_at) / Fold change /veh HLA-DPB1 (11760878_x_at) / RFU SPINT1 (11716480_a_at) / Fold change /veh SPINT1 (11716480_a_at) / RFU GAP43 (11754022_s_at) / Fold change /veh GAP43 (11754022_s_at) / RFU A4GNT (11735810_at) / Fold change /veh A4GNT (11735810_at) / RFU PRB3 (11715151_x_at) / Fold change /veh PRB3 (11715151_x_at) / RFU TUBB4B (11761932_at) / Fold change /veh TUBB4B (11761932_at) / RFU CAPN14 (11732068_a_at) / Fold change /veh CAPN14 (11732068_a_at) / RFU TMCC2 (11721928_a_at) / Fold change /veh TMCC2 (11721928_a_at) / RFU IRGQ (11745062_a_at) / Fold change /veh IRGQ (11745062_a_at) / RFU FAM174B (11720279_a_at) / Fold change /veh FAM174B (11720279_a_at) / RFU TMPRSS4 (11748680_a_at) / Fold change /veh TMPRSS4 (11748680_a_at) / RFU FAM212B (11763350_a_at) / Fold change /veh FAM212B (11763350_a_at) / RFU PLEKHG5 (11743358_a_at) / Fold change /veh PLEKHG5 (11743358_a_at) / RFU ZSCAN30 (11745921_a_at) / Fold change /veh ZSCAN30 (11745921_a_at) / RFU CMKLR1 (11741424_a_at) / Fold change /veh CMKLR1 (11741424_a_at) / RFU LOC101060620 /// MAPK8IP1 (11723275_at) / Fold change /veh LOC101060620 /// MAPK8IP1 (11723275_at) / RFU SPTSSB (11747773_x_at) / Fold change /veh SPTSSB (11747773_x_at) / RFU PRSS12 (11739890_at) / Fold change /veh PRSS12 (11739890_at) / RFU BIN1 (11741810_x_at) / Fold change /veh BIN1 (11741810_x_at) / RFU WNT11 (11732464_a_at) / Fold change /veh WNT11 (11732464_a_at) / RFU C10orf10 (11716521_a_at) / Fold change /veh C10orf10 (11716521_a_at) / RFU C5orf56 (11738089_at) / Fold change /veh C5orf56 (11738089_at) / RFU CYB561 (11721691_x_at) / Fold change /veh CYB561 (11721691_x_at) / RFU ANKRD19P (11752326_a_at) / Fold change /veh ANKRD19P (11752326_a_at) / RFU OR2T12 /// OR2T33 /// OR2T8 (11738714_s_at) / Fold change /veh OR2T12 /// OR2T33 /// OR2T8 (11738714_s_at) / RFU VCAN (11748164_a_at) / Fold change /veh VCAN (11748164_a_at) / RFU JSRP1 (11732532_at) / Fold change /veh JSRP1 (11732532_at) / RFU KRTAP10-11 (11738290_x_at) / Fold change /veh KRTAP10-11 (11738290_x_at) / RFU MYO3A (11730013_a_at) / Fold change /veh MYO3A (11730013_a_at) / RFU EBF3 (11725865_a_at) / Fold change /veh EBF3 (11725865_a_at) / RFU CAMK2N1 (11719241_x_at) / Fold change /veh CAMK2N1 (11719241_x_at) / RFU C5orf56 (11738088_a_at) / Fold change /veh C5orf56 (11738088_a_at) / RFU OLFML3 (11715873_a_at) / Fold change /veh OLFML3 (11715873_a_at) / RFU LOC100653217 /// NTM (11731650_a_at) / Fold change /veh LOC100653217 /// NTM (11731650_a_at) / RFU MAPK11 (11762145_a_at) / Fold change /veh MAPK11 (11762145_a_at) / RFU FIZ1 (11724087_x_at) / Fold change /veh FIZ1 (11724087_x_at) / RFU OASL (11726364_x_at) / Fold change /veh OASL (11726364_x_at) / RFU SOX15 (11748057_x_at) / Fold change /veh SOX15 (11748057_x_at) / RFU CD79A (11719716_a_at) / Fold change /veh CD79A (11719716_a_at) / RFU HIST1H1D (11736915_at) / Fold change /veh HIST1H1D (11736915_at) / RFU CASKIN2 (11723855_a_at) / Fold change /veh CASKIN2 (11723855_a_at) / RFU LOC730098 (11760151_x_at) / Fold change /veh LOC730098 (11760151_x_at) / RFU OR4N2 (11742367_at) / Fold change /veh OR4N2 (11742367_at) / RFU PRRT2 (11749266_a_at) / Fold change /veh PRRT2 (11749266_a_at) / RFU SNX32 (11753110_a_at) / Fold change /veh SNX32 (11753110_a_at) / RFU CDHR5 (11726645_a_at) / Fold change /veh CDHR5 (11726645_a_at) / RFU RCAN1 (11760418_a_at) / Fold change /veh RCAN1 (11760418_a_at) / RFU FAM167A (11723789_a_at) / Fold change /veh FAM167A (11723789_a_at) / RFU FAM26E (11764081_at) / Fold change /veh FAM26E (11764081_at) / RFU ISYNA1 (11749810_s_at) / Fold change /veh ISYNA1 (11749810_s_at) / RFU ACY1 (11761880_at) / Fold change /veh ACY1 (11761880_at) / RFU 11764098_at / Fold change /veh 11764098_at / RFU SAMD14 (11745864_x_at) / Fold change /veh SAMD14 (11745864_x_at) / RFU NPB (11741838_a_at) / Fold change /veh NPB (11741838_a_at) / RFU TMPRSS6 (11731388_a_at) / Fold change /veh TMPRSS6 (11731388_a_at) / RFU KRTAP10-2 (11738614_at) / Fold change /veh KRTAP10-2 (11738614_at) / RFU ARHGAP8 /// PRR5-ARHGAP8 (11727945_x_at) / Fold change /veh ARHGAP8 /// PRR5-ARHGAP8 (11727945_x_at) / RFU KRTAP5-7 /// NADSYN1 (11734609_at) / Fold change /veh KRTAP5-7 /// NADSYN1 (11734609_at) / RFU RASL12 (11751679_a_at) / Fold change /veh RASL12 (11751679_a_at) / RFU CDKN2B (11736163_a_at) / Fold change /veh CDKN2B (11736163_a_at) / RFU PRF1 (11729649_at) / Fold change /veh PRF1 (11729649_at) / RFU, ZNF638 /// ZNF638-IT1 / Fold change vs veh, ZNF638 /// ZNF638-IT1 / RFU, PANK3 / Fold change vs veh, PANK3 / RFU, SH3YL1 / Fold change vs veh, SH3YL1 / RFU, ZEB2 / Fold change vs veh, ZEB2 / RFU, NRIP1 / Fold change vs veh, NRIP1 / RFU, PTTG1IP / Fold change vs veh, PTTG1IP / RFU, CAPN2 / Fold change vs veh, CAPN2 / RFU, MED14 / Fold change vs veh, MED14 / RFU, SNORA58 / Fold change vs veh, SNORA58 / RFU, C1orf63 / Fold change vs veh, C1orf63 / RFU, LRRFIP1 / Fold change vs veh, LRRFIP1 / RFU, NDUFAF7 / Fold change vs veh, NDUFAF7 / RFU, SLC12A2 / Fold change vs veh, SLC12A2 / RFU, IBTK / Fold change vs veh, IBTK / RFU, ESF1 / Fold change vs veh, ESF1 / Fold change vs veh, TMEM50B / RFU, TAOK1 / Fold change vs veh, TAOK1 / RFU, ACBD3 / Fold change vs veh, ACBD3 / RFU, TMA16 / Fold change vs veh, TMA16 / RFU, RWDD3 / Fold change vs veh, RWDD3 / RFU, BCAT1 / Fold change vs veh, BCAT1 / RFU, EDEM3 / Fold change vs veh, EDEM3 / RFU, TMEM33 / Fold change vs veh, TMEM33 / RFU, WDR75 / Fold change vs veh, WDR75 / RFU, AHCTF1 / Fold change vs veh, AHCTF1 / RFU, TFRC / Fold change vs veh, TFRC / RFU, ZDHHC17 / Fold change vs veh, ZDHHC17 / RFU, NOM1 / Fold change vs veh, NOM1 / RFU, ARL8B / Fold change vs veh, ARL8B / RFU, ZBTB11 / Fold change vs veh, ZBTB11 / RFU, TAMM41 / Fold change vs veh, TAMM41 / RFU, KIAA1704 /// LOC100996395 / Fold change vs veh, KIAA1704 /// LOC100996395 / RFU, ING1 / Fold change vs veh, ING1 / RFU, TRMT61B / Fold change vs veh, TRMT61B / RFU, FUBP3 / Fold change vs veh, FUBP3 / RFU, TP53 / Fold change vs veh, TP53 / RFU, TNKS2 / Fold change vs veh, TNKS2 / RFU, ZFP14 / Fold change vs veh, ZFP14 / RFU, ACTR2 / Fold change vs veh, ACTR2 / RFU, PPP3R1 / Fold change vs veh, PPP3R1 / RFU, PIK3R1 / Fold change vs veh, PIK3R1 / RFU, HNRNPA1 / Fold change vs veh, HNRNPA1 / RFU, RNF170 / Fold change vs veh, RNF170 / RFU, ZNF28 / Fold change vs veh, ZNF28 / RFU, RNGTT / Fold change vs veh, RNGTT / RFU, OGT / Fold change vs veh, OGT / RFU, BRD1 / Fold change vs veh, BRD1 / RFU, MARS / Fold change vs veh, MARS / RFU, ZNF655 / Fold change vs veh, ZNF655 / RFU, FAHD1 / Fold change vs veh, FAHD1 / RFU, BDP1 / Fold change vs veh, BDP1 / RFU, LRRCC1 / Fold change vs veh, LRRCC1 / RFU, ARID1A / Fold change vs veh, ARID1A / RFU, ZNF146 / Fold change vs veh, ZNF146 / RFU, ZNF330 / Fold change vs veh, ZNF330 / RFU, GPN3 / Fold change vs veh, GPN3 / RFU, C9orf123 / Fold change vs veh, C9orf123 / RFU, N4BP2L2 / Fold change vs veh, N4BP2L2 / RFU, ARFIP1 / Fold change vs veh, ARFIP1 / RFU, FAM179B / Fold change vs veh, FAM179B / RFU, BCL10 / Fold change vs veh, BCL10 / RFU, UHRF1BP1L / Fold change vs veh, UHRF1BP1L / RFU, BET1 / Fold change vs veh, BET1 / RFU, CNOT2 / Fold change vs veh, CNOT2 / RFU, ZNF268 / Fold change vs veh, ZNF268 / Fold change vs veh, ZNF507 / RFU, DGCR2 / Fold change vs veh, DGCR2 / RFU, WDSUB1 / Fold change vs veh, WDSUB1 / Fold change vs veh, HSP90B1 /// MIR3652 / RFU, ADSS / Fold change vs veh, ADSS / RFU, GK / Fold change vs veh, GK / RFU, ZNF148 / Fold change vs veh, ZNF148 / RFU, TAF9 / Fold change vs veh, TAF9 / RFU, SLC1A5 / Fold change vs veh, SLC1A5 / RFU, SLMO2 / Fold change vs veh, SLMO2 / RFU, ABCC4 / Fold change vs veh, ABCC4 / RFU, LOC101060439 /// RAP1B / Fold change vs veh, LOC101060439 /// RAP1B / RFU, RFX7 / Fold change vs veh, RFX7 / RFU, GTPBP10 / Fold change vs veh, GTPBP10 / RFU, CNEP1R1 / Fold change vs veh, CNEP1R1 / RFU, BIVM-ERCC5 /// ERCC5 / Fold change vs veh, BIVM-ERCC5 /// ERCC5 / RFU, ILF3 / Fold change vs veh, ILF3 / RFU 11762660_at / Fold change /veh 11762660_at / RFU VCAN (11757783_s_at) / Fold change /veh VCAN (11757783_s_at) / RFU DDX43 (11728927_at) / Fold change /veh DDX43 (11728927_at) / RFU KRT8 (11758188_x_at) / Fold change /veh KRT8 (11758188_x_at) / RFU NKD1 (11759106_at) / Fold change /veh NKD1 (11759106_at) / RFU SRD5A1 (11742802_a_at) / Fold change /veh SRD5A1 (11742802_a_at) / RFU TPSAB1 /// TPSB2 (11721975_s_at) / Fold change /veh TPSAB1 /// TPSB2 (11721975_s_at) / RFU GSTM3 (11746129_a_at) / Fold change /veh GSTM3 (11746129_a_at) / RFU IL23R (11737362_x_at) / Fold change /veh IL23R (11737362_x_at) / RFU TMEM51 (11727254_a_at) / Fold change /veh TMEM51 (11727254_a_at) / RFU PIWIL2 (11732686_x_at) / Fold change /veh PIWIL2 (11732686_x_at) / RFU ORM1 (11744905_x_at) / Fold change /veh ORM1 (11744905_x_at) / RFU CCDC152 (11743942_at) / Fold change /veh CCDC152 (11743942_at) / RFU ECM1 (11717891_a_at) / Fold change /veh ECM1 (11717891_a_at) / RFU IL23R (11748794_a_at) / Fold change /veh IL23R (11748794_a_at) / RFU TNFAIP8L3 (11732012_x_at) / Fold change /veh TNFAIP8L3 (11732012_x_at) / RFU MBOAT4 (11741988_at) / Fold change /veh MBOAT4 (11741988_at) / RFU 11764193_at / Fold change /veh 11764193_at / RFU TMEM53 (11763286_at) / Fold change /veh TMEM53 (11763286_at) / RFU MAGEB2 (11727129_at) / Fold change /veh MAGEB2 (11727129_at) / RFU TMEM200A (11744735_a_at) / Fold change /veh TMEM200A (11744735_a_at) / RFU CCDC152 (11751479_a_at) / Fold change /veh CCDC152 (11751479_a_at) / RFU FAM211A (11726209_a_at) / Fold change /veh FAM211A (11726209_a_at) / RFU RGS16 (11746705_a_at) / Fold change /veh RGS16 (11746705_a_at) / RFU VCAN (11755009_s_at) / Fold change /veh VCAN (11755009_s_at) / RFU RHOB (11743442_s_at) / Fold change /veh RHOB (11743442_s_at) / RFU RGS16 (11720943_a_at) / Fold change /veh RGS16 (11720943_a_at) / RFU RGS16 (11720944_at) / Fold change /veh RGS16 (11720944_at) / RFU, VPS4B / Fold change vs veh, VPS4B / RFU, CREB1 / Fold change vs veh, CREB1 / RFU, DNAJC13 / Fold change vs veh, DNAJC13 / RFU, GNAQ / Fold change vs veh, GNAQ / RFU, CDK5R1 / Fold change vs veh, CDK5R1 / RFU, ZRANB3 / Fold change vs veh, ZRANB3 / RFU, CUL4A / Fold change vs veh, CUL4A / RFU, CCNY / Fold change vs veh, CCNY / RFU, UFL1 / Fold change vs veh, UFL1 / RFU, COG3 / Fold change vs veh, COG3 / RFU, DIAPH2 / Fold change vs veh, DIAPH2 / RFU, SKA2 / Fold change vs veh, SKA2 / RFU, AFF3 / Fold change vs veh, AFF3 / RFU, LMF1 / Fold change vs veh, LMF1 / RFU, IPO11 / Fold change vs veh, IPO11 / RFU, DFFB / Fold change vs veh, DFFB / RFU, FOXP1 / Fold change vs veh, FOXP1 / RFU, CARD8 / Fold change vs veh, CARD8 / RFU, STRN3 / Fold change vs veh, STRN3 / RFU, ADK / Fold change vs veh, ADK / RFU, RASSF2 / Fold change vs veh, RASSF2 / RFU, WIPF1 / Fold change vs veh, WIPF1 / RFU, LARP1B / Fold change vs veh, LARP1B / RFU, RASA1 / Fold change vs veh, RASA1 / RFU, RB1 / Fold change vs veh, RB1 / RFU, PPFIA1 / Fold change vs veh, PPFIA1 / RFU, MAT2A / Fold change vs veh, MAT2A / RFU, CCT5 / Fold change vs veh, CCT5 / RFU, WDR92 / Fold change vs veh, WDR92 / RFU, CUX1 / Fold change vs veh, CUX1 / RFU, TTC7A / Fold change vs veh, TTC7A / RFU, TMEM135 / Fold change vs veh, TMEM135 / RFU, DEPTOR / Fold change vs veh, DEPTOR / RFU, CPM / Fold change vs veh, CPM / RFU, DNAJB6 / Fold change vs veh, DNAJB6 / RFU, CACNA2D3 / Fold change vs veh, CACNA2D3 / RFU, DTX4 / Fold change vs veh, DTX4 / RFU, TFCP2 / Fold change vs veh, TFCP2 / RFU, GMCL1 /// GMCL1P1 / Fold change vs veh, GMCL1 /// GMCL1P1 / RFU, AEBP2 / Fold change vs veh, AEBP2 / RFU, SNHG1 /// SNORD22 /// SNORD25 /// SNORD26 /// SNORD27 /// SNORD28 /// SNORD29 /// SNORD31 / Fold change vs veh, SNHG1 /// SNORD22 /// SNORD25 /// SNORD26 /// SNORD27 /// SNORD28 /// SNORD29 /// SNORD31 / Fold change (Aza/veh), C12orf56 (ProbeSet 11735607_a_at) / Fold change (ACY-1035/veh), C12orf56 (ProbeSet 11735607_a_at) / Fold change (Aza/veh), FGFR1OP (ProbeSet 11751329_s_at) / Fold change (ACY-1035/veh), FGFR1OP (ProbeSet 11751329_s_at) / Fold change (Aza/veh), VPS36 (ProbeSet 11739960_a_at) / Fold change (ACY-1035/veh), VPS36 (ProbeSet 11739960_a_at) / RFU SYPL1 (11715823_x_at) / Fold change /veh SYPL1 (11715823_x_at) / RFU IGFBP7 (11715501_s_at) / Fold change /veh IGFBP7 (11715501_s_at) / RFU REEP3 (11722064_at) / Fold change /veh REEP3 (11722064_at) / RFU IGLL1 (11728026_x_at) / Fold change /veh IGLL1 (11728026_x_at): dose or concentration left out as unconfirmed
Conditions: ProbeSet 11720269_a_at; LIST B

For Nc1ccc(-c2cccs2)cc1NC(=O)c1ccc2c(c1)cc(C1CC1)n2CCN1CCOCC1 [ACY-1035], the “Fold change vs veh, IBTK” value was 0.93.
